Patent publication US20240415123A1, “METHODS AND COMPOSITIONS FOR ICAFOLIN HERBICIDE TOLERANCE” (Monsanto Technology LLC, priority 2023, published 2024)

Test system: transgenic soybean plants expressing CYP21
Assay: Icafolin herbicide injury rating, greenhouse spray, CYP21 soybean
Assay type: in vivo
Settings: for Percent Injury 14 DAT / Percent injury 21 DAT: Table 8; for Percent Injury 14 DAT / injury: 14 DAT
Source text: The codon-optimized genes were placed into plant transformation cassettes with each CYP coding sequence operably linked to a constitutive expression element comprising the promoter, leader, and intron of Arabidopsis thaliana Ubiquitin 3 (SEQ ID NO:14) and a Medicago truncatula photosystem II terminator (SEQ ID NO:15). Two plant transformation vectors were created, each comprising one of the CYP gene cassettes and an aadA selectable marker expression cassette, conferring resistance to the antibiotics spectinomycin and streptomycin. Soybean cultivar AG3555 seed-derived embryo explants were transformed with the vectors described above by Agrobacterium-mediated transformation using known methods in the art, and positive-transformed plantlets were selected based on growth in the presence of spectinomycin. Plantlets comprising single copy events were grown in the greenhouse to produce R1 seeds. R1 plants were subsequently selected for the homozygous CYP positive plants, either by molecular analysis of young leaf tissue or by seed chipping prior to planting. These selected plants were then screened for tolerance to the icafolin herbicide.
Herbicide tolerance screening was performed by selecting R1 plants at roughly the V2-V3 developmental stage and applying the icafolin herbicide in a track sprayer under standard greenhouse conditions. Two independent transgenic events per transgene were selected for screening. The herbicide was formulated with 1% v/v methylated seed oil (MSO) and 2.5% v/v ammonium sulfate (AMS) and sprayed with a XR nozzle at 15 gallons per […] (GPA) to mimic field conditions. The icafolin formulation was sprayed at two rates: 5 g active ingredient (ai)/hectare (ha) and 25 g ai/ha. The treated soybean plants were returned to the greenhouse following spray application and allowed to grow under standard conditions. The plants were rated for herbicide injury at approximately 14 and 21 days after treatment (DAT). Untreated transgenic plants and control (wild-type) plants were used for phenotypic comparison. The herbicide injury rating accounts for plant malformation, stunting, chlorosis, necrosis, and plant death relative to the untreated control plants. An injury rating of approximately 90% or above indicates nearly complete plant death. An injury rating of less than 30% indicates partial tolerance and an injury rating of less than 20% indicates good tolerance. Injury ratings were collected and analyzed, and photographs of representative plants were taken.

[1] = CYP21 Event 344, 5 g ai/ha icafolin
[2] = CYP21 Event 344, 25 g ai/ha icafolin
[3] = CYP21 Event 502, 5 g ai/ha icafolin
[4] = CYP21 Event 502, 25 g ai/ha icafolin

For `C=C[C@]1(C(=O)N[C@H]2CO[C@@H](C(=O)OC)C2)CC(c2cc(F)cc(F)c2)=NO1` (relative stereo) [icafolin, methyl(2R*,4R*)-4-[[(5S)-3-(3,5-difluorophenyl)-5-vinyl-4H-isoxazole-5-carbonyl]amino]tetrahydrofuran-2-carboxylate], the Tolerance to icafolin (CYP21, overall) was “good tolerance (an injury rating of less than 20% indicates good tolerance)”, the “Percent Injury 14 DAT” value [1] was 2.5% and the “Percent injury 21 DAT” value [1] was 5.0%. For the same compound, the “Percent Injury 14 DAT” value [2] was 50%, the “Percent injury 21 DAT” value [2] was 37.5% and the “Percent Injury 14 DAT” value [3] was 7.5%. For the same compound, the “Percent injury 21 DAT” value [3] was 5.0%, the “Percent Injury 14 DAT” value [4] was 72.5% and the “Percent injury 21 DAT” value [4] was 62.5%. For the same compound, the “injury” value (CYP21 events, 5 g ai/ha) was “less than 10%”, the “injury” value (one CYP21 event, 25 g ai/ha) was “about 50%” and the “injury” value (the other CYP21 event, 25 g ai/ha) was “about 72%”.
